# Biological target: T1, Leukotriene B4 receptor 2 (Homo sapiens, UniProt Q9NPC1)
# T1 sequence (Q9NPC1 whole entry): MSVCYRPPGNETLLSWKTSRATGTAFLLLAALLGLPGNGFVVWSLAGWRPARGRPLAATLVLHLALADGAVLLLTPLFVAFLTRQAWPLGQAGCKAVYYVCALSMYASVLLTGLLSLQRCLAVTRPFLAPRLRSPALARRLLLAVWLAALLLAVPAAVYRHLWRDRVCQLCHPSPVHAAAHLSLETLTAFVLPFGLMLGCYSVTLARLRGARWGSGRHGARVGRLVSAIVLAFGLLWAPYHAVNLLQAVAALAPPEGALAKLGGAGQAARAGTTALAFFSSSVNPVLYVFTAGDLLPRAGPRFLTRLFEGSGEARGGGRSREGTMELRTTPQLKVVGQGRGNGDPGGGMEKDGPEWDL
row,Structure (SMILES),Ki [nM]
1,O=C(Nc1ccc2c(=O)cc(-c3nnn[nH]3)oc2c1)c1ccc(OCCCCc2ccccc2)cc1 [CAS_103177-37-3],3620
2,"CCCCC/C=C\C\C=C/C=C/C=C/[C@@H](SC[C@H](N)C(=O)O)[C@@H](O)CCCC(=O)O [(5S-(5R*,6S*(S*),7E,9E,11Z,14Z))-6-((2-Amino-2-carboxyethyl)thio)-5-hydroxy-7,9,11,14-eicosatetraenoic acid]",693
3,CC(C)(O)c1ccccc1CCC(S)c1cccc(C=Cc2ccc3ccc(Cl)cc3n2)c1 (stereo unspecified) [NSC_5311297],> 10000
4,COc1cc(C(=O)NS(=O)(=O)c2ccccc2C)ccc1Cc1cn(C)c2ccc(NC(=O)OC3CCCC3)cc12 [cyclopentyl 3-(2-methoxy-4-((o-tolylsulfonyl)carbamoyl)benzyl)-1-methylindole-5-carbamate],7400

# Now those with a lower Ki, led by results:
row,Ki [nM],Structure (SMILES)
1,3.35,CCCCCC=CCC=CC=CC=CC(SCC(NC(=O)CCC(N)C(=O)O)C(=O)NCC(=O)O)C(O)CCCC(=O)O (stereo unspecified) [CAS_5283121]
2,3.48,"CCCCC/C=C\C\C=C/C=C/C=C/[C@@H](SC[C@H](N)C(=O)NCC(=O)O)[C@@H](O)CCCC(=O)O [5S-hydroxy-6R-(S-cysteinylglycinyl)-7E,9E,11E,14Z-eicosatetraenoic acid]"

# Source: BindingDB's records for doi:10.1074/jbc.M003490200 (University of Virginia, 2000)
